Data on twelve molecules can be found in ChEMBL document CHEMBL3877324, “Synthesis of new spirooxindole-pyrrolothiazole derivatives: Anti-cancer activity and molecular docking” (Bioorg Med Chem, 2017).

The nature of experiment [1]: Growth inhibition of human MCF7 cells after 48 hrs by WST1 assay. It counts as functional, cell-based. To be noted: MCF7, 48 h.
Experiment [2] can be described thus: Growth inhibition of human K562 cells after 48 hrs by WST1 assay. The class given is functional, cell-based. To be noted: K562, 48 h.
For a further experiment, the system named is MCF7. Briefly: Induction of apoptosis in human MCF7 cells at 10 uM after 48 hrs by Annexin-V FITC/propidium iodide staining based flow cytometry relative to control. The class given is functional.

The IC50 is the concentration needed to halve the response being measured. Low readings indicate greater potency, high ones weaker potency.

As for `O=C1Nc2ccccc2[C@]12N1CSC[C@H]1[C@H](c1ccc(Cl)cc1)[C@]21CCC/C(=C\c2ccc(Cl)cc2)C1=O`, the IC50 in experiment [1] is 49.1 µM; in experiment [2] it was 24 µM.

For `Cc1cccc(/C=C2\CCC[C@@]3(C2=O)[C@@H](c2cccc(C)c2)[C@@H]2CSCN2[C@@]32C(=O)Nc3ccccc32)c1`, the results for the IC50 in experiment [1] and in experiment [2] were 28.1 µM and 30.7 µM, respectively.

As to `O=C1Nc2ccccc2[C@]12N1CSC[C@H]1[C@H](c1ccc(Br)cc1)[C@]21CCC/C(=C\c2ccc(Br)cc2)C1=O`, in the experiment with MCF7, the “fold change (FC)” value is reported as 2. The IC50 was 15.3 µM in experiment [1] and 14.7 µM in experiment [2].

For `COc1ccc(/C=C2\CCC[C@@]3(C2=O)[C@@H](c2ccc(OC)cc2)[C@@H]2CSCN2[C@@]32C(=O)Nc3ccccc32)cc1`, the results for the IC50 in experiment [1] and in experiment [2] were 24.4 µM and 19.5 µM, respectively.

Regarding `O=C1Nc2ccccc2[C@]12N1CSC[C@H]1[C@H](c1cccc(F)c1)[C@]21CCC/C(=C\c2cccc(F)c2)C1=O`, the IC50 in experiment [1] is 145 µM; in experiment [2], 15.7 µM.

`O=C1Nc2ccccc2[C@]12N1CSC[C@H]1[C@H](c1ccccc1)[C@]21CCC/C(=C\c2ccccc2)C1=O`: the 50% inhibitory concentration (IC50) in experiment [1] was 26.8 µM; in experiment [2] it was 16.6 µM.

As to `O=C1Nc2ccccc2[C@]12N1CSC[C@H]1[C@H](c1cccc([N+](=O)[O-])c1)[C@]21CCC/C(=C\c2cccc([N+](=O)[O-])c2)C1=O`, the values for the IC50 in experiment [1] and in experiment [2] were 25.8 µM and 27.6 µM, respectively.

In the case of `O=C1Nc2ccccc2[C@]12N1CSC[C@H]1[C@H](c1cccc(Br)c1)[C@]21CCC/C(=C\c2cccc(Br)c2)C1=O`, the half-inhibitory concentration (IC50) in experiment [1] is 34.8 µM; in experiment [2] it was 22.2 µM.

Take `Cc1ccc(/C=C2\CCC[C@@]3(C2=O)[C@@H](c2ccc(C)cc2)[C@@H]2CSCN2[C@@]32C(=O)Nc3ccccc32)cc1`: the IC50 in experiment [1] stood at 43.1 µM; in experiment [2], 38.1 µM.

For the molecule `O=C1Nc2ccccc2[C@]12N1CSC[C@H]1[C@H](c1ccc(C(F)(F)F)cc1)[C@]21CCC/C(=C\c2ccc(C(F)(F)F)cc2)C1=O`, the IC50 in experiment [1] was determined as 49.4 µM; in experiment [2], 33.2 µM.

`O=C1Nc2ccccc2[C@]12N1CSC[C@H]1C(c1ccc(Cl)cc1Cl)[C@]21CCC/C(=C\c2ccc(Cl)cc2Cl)C1=O` (single isomer, unassigned): the IC50 is 26.1 µM in experiment [1] and 19.5 µM in experiment [2].

The molecule `O=c1[nH]cc(F)c(=O)[nH]1` [FLUOROURACIL] came in with an IC50 in experiment [1] of 78.3 µM.
